The values below come from ChEMBL document CHEMBL1144573, “Lead optimization of [(S)-gamma-(arylamino)prolyl]thiazolidine focused on gamma-substituent: Indoline compounds as potent DPP-IV inhibitors” (Bioorg Med Chem, 2007).

Experiment [1] has as its target Dipeptidyl peptidase 4 (Rattus norvegicus, UniProt P14740). Description: Inhibition of DPP4 in rat plasma by fluorescence assay. The class given is cell-free.
For experiment [2], the target named is Dipeptidyl peptidase 4 (Homo sapiens, UniProt P27487). The class given is cell-free, Plasma.

Some results are limits rather than exact numbers.

Sequence of Dipeptidyl peptidase 4 (Rattus norvegicus, UniProt P14740) (P14740 whole entry): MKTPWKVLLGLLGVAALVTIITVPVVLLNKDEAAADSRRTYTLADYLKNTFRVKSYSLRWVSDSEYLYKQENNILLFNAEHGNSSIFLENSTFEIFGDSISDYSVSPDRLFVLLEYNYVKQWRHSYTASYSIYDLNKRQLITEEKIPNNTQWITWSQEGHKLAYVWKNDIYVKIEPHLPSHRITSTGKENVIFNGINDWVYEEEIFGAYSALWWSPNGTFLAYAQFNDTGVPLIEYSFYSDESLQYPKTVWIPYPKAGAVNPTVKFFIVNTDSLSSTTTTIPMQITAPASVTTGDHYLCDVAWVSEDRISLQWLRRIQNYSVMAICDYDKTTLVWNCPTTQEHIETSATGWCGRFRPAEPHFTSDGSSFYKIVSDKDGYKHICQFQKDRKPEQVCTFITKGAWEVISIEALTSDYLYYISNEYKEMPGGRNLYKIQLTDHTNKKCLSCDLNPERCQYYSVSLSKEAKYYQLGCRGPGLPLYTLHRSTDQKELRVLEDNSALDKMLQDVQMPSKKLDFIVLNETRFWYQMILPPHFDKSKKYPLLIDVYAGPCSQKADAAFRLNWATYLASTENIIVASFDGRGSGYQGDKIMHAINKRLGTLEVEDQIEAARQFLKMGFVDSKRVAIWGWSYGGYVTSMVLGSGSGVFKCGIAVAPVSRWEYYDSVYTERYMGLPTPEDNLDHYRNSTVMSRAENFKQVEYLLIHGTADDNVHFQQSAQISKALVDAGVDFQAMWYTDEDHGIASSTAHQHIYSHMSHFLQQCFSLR
Sequence of Dipeptidyl peptidase 4 (Homo sapiens, UniProt P27487) (P27487 whole entry): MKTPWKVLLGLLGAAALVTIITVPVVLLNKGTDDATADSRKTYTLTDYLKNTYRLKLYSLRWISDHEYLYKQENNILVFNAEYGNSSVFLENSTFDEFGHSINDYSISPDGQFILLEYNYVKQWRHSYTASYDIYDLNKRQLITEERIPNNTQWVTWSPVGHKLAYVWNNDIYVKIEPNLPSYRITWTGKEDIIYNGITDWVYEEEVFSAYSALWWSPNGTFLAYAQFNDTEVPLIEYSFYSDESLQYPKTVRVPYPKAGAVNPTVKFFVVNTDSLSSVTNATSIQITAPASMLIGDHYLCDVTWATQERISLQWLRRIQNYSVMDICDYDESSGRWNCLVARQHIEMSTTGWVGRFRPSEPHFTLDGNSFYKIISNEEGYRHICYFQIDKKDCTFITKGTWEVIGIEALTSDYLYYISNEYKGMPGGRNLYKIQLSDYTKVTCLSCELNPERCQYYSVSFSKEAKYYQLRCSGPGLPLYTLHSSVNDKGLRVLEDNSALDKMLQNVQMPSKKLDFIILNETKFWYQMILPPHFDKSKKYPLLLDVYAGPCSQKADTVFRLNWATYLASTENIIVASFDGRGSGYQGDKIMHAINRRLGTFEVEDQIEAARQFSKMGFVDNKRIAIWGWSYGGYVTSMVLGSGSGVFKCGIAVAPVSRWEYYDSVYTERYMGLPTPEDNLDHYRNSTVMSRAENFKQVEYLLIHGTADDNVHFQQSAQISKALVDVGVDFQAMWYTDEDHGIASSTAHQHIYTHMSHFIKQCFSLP

Regarding `O=C([C@@H]1C[C@H](N2CCc3cc([N+](=O)[O-])ccc32)CN1)N1CCSC1`, half-maximal inhibition against Dipeptidyl peptidase 4 [1] (IC50) was put at 10.3 nM. Still for that read-out and setting: then `O=C([C@@H]1C[C@H](N2CCc3cc(F)ccc32)CN1)N1CCSC1`, with 10.1 nM. Turning to `O=C(N[C@@H]1CN[C@H](C(=O)N2CCSC2)C1)c1ccccc1`, the IC50 (usually the midpoint of a concentration-inhibition curve) on Dipeptidyl peptidase 4 [2] is > 300 nM. At Dipeptidyl peptidase 4 [1], `O=C([C@@H]1C[C@H](N2CCc3cc(Br)ccc32)CN1)N1CCSC1` came in with an IC50 of 10.7 nM.

In the case of `COc1ccc(N[C@@H]2CN[C@H](C(=O)N3CCSC3)C2)cc1`, on Dipeptidyl peptidase 4 [1], the midpoint of inhibition, the IC50, lay at 54.9 nM. Still for that read-out and setting: to `CN(Cc1ccc(C#N)cc1)[C@@H]1CN[C@H](C(=O)N2CCSC2)C1` belongs 13.6 nM; to `O=C([C@@H]1C[C@H](N2CCc3ccccc32)CN1)N1CCSC1`, 19.5 nM. On to `N#Cc1ccc(S(=O)(=O)N[C@@H]2CN[C@H](C(=O)N3CCSC3)C2)cc1`, for which the IC50 against Dipeptidyl peptidase 4 [1] and at Dipeptidyl peptidase 4 [2] was > 300 nM each time.

With `O=C([C@@H]1C[C@H](NS(=O)(=O)c2ccccc2)CN1)N1CCSC1`, the IC50 at Dipeptidyl peptidase 4 [1] and at Dipeptidyl peptidase 4 [2] was > 300 nM throughout. With `O=C(O[C@@H]1CN[C@H](C(=O)N2CCSC2)C1)c1ccccc1`, the 50% inhibitory concentration (IC50) at Dipeptidyl peptidase 4 [1] and against Dipeptidyl peptidase 4 [2] was > 300 nM each time. `O=C([C@@H]1C[C@H](N2CCc3cc(Cl)ccc32)CN1)N1CCSC1` registered an IC50 against Dipeptidyl peptidase 4 [1] of 13.4 nM. On the same count and under the same terms, then `N#Cc1ccc(CN(CCO)[C@@H]2CN[C@H](C(=O)N3CCSC3)C2)cc1`, with 23 nM. For the compound `N#Cc1ccc(C(=O)O[C@@H]2CN[C@H](C(=O)N3CCSC3)C2)cc1`, the half-maximal inhibitory concentration (IC50) against Dipeptidyl peptidase 4 [1] and at Dipeptidyl peptidase 4 [2] was > 300 nM in each case.
